Common to all, as to assay: NCI anticancer screen, dose series, 48 h
Assay [1] relates to 786-0.
Assay [2] deals with ACHN.
The test system of assay [3] is COLO 205.
The subject of assay [4] is DU-145.
Assay [5] concerns HCC 2998.
For assay [6], the system named is HCT-15.
Assay [7] concerns IGROV-1.
Assay [8] concerns MCF7.
Assay [9] deals with MDA-MB-231.
Assay [10] concerns MOLT-4.
In assay [11] the test system is RXF 393.
Assay [12] has as its system SF-295.
For assay [13], the system named is SK-MEL-28.
For assay [14], the system named is SK-MEL-2.
For assay [15], the system named is SK-MEL-5.
Assay [16] concerns SNB-75.
The subject of assay [17] is UO-31.
Assay [18] deals with MDA-N.
Assay [19] concerns T47D.

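Cultured in 96-well plates, cells were exposed to test compound for 48 hours across five concentrations. GI50 is the concentration that inhibits growth by half.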 Active and inactive are the calls of the source. Rule as the data show it: active = GI50 up to about 1.1 µM and inactive = higher.

Consider `C/C1=C\CC[C@@]2(C)O[C@@H]2[C@H]2OC(=O)C(C)C2C[C@H]1O` (stereo partly drawn), for which the GI50 in assay [1] is > 100 µM (inactive); in [2] it was > 100 µM (inactive); in assay [3] it was > 100 µM (inactive); in assay [4], > 100 µM (inactive); in assay [5] it was > 100 µM (inactive); in [6] it was over 100 µM. The GI50 in assay [7], in assay [8], in [9], in [10], in assay [11] and in assay [12] was > 100 µM (inactive) each time. In addition, the GI50 in assay [13] was > 100 µM (inactive); in [14], > 100 µM (inactive); in assay [15], 22.5 µM (inactive); in [16] it was > 100 µM (inactive); in [17] it was > 100 µM (inactive).
With `Cc1ccc(-c2c(C#N)c(-c3ccc(Cl)cc3)c(C#N)c(=O)n2NS(=O)(=O)c2ccccc2)cc1`, the GI50 in [1] is 86.5 µM (inactive); in assay [2] it was 46.9 µM (inactive); in assay [3], > 100 µM (inactive); in assay [5], 37.1 µM (inactive); in [6], 51.6 µM; in assay [7], 33 µM (inactive). Besides, the GI50 is 51.2 µM (inactive) in assay [8]; > 100 µM (inactive) in assay [9]; > 100 µM (inactive) in assay [18]; 55.2 µM (inactive) in [10]; 32 µM (inactive) in assay [11]; 60.8 µM (inactive) in assay [12]. Besides, the GI50 is > 100 µM (inactive) in [13], 25.7 µM (inactive) in assay [14], 31.9 µM (inactive) in assay [15] and 47.5 µM (inactive) in assay [16].
`CCOC(=O)CCC(NC(=O)C(N)c1ccc([N+](=O)[O-])cc1)C(=O)NC(CCC(=O)OCC)C(=O)OCC` (stereo not drawn): the GI50 in assay [1] is > 100 µM (inactive); in [2], > 100 µM (inactive); in [3] it was > 100 µM (inactive); in [5] it was > 100 µM (inactive); in assay [6] it was over 100 µM; in [7], > 100 µM (inactive). Moreover, the GI50 in assay [8], in [9], in assay [18], in [10], in assay [13] and in assay [14] was > 100 µM (inactive) each time. The GI50 was > 100 µM (inactive) in assay [15], > 100 µM (inactive) in [16], 35.6 µM (inactive) in assay [19] and > 100 µM (inactive) in assay [17].
`N#CCCC1(CCC#N)CCCCCCC(CCC#N)(CCC#N)C(=O)C1=O`: the GI50 in assay [1] is > 100 µM (inactive); in assay [2], > 100 µM (inactive); in [3], 36.8 µM (inactive); in [4] it was > 100 µM (inactive); in assay [5] it was 67.1 µM (inactive); in [6], over 100 µM. The GI50 in assay [7] was > 100 µM (inactive); in assay [8], 70.5 µM (inactive); in assay [18], > 100 µM (inactive); in assay [11], > 100 µM (inactive); in [12], > 100 µM (inactive); in assay [13], > 100 µM (inactive). Besides, the GI50 was > 100 µM (inactive) in assay [14]; > 100 µM (inactive) in [15]; > 100 µM (inactive) in assay [16]; 11.9 µM (inactive) in [19]; 3.08 µM (inactive) in assay [17].
Take `Clc1ccc(Cl)c(SCCCN2CCNCC2)c1`: the GI50 is 20.1 µM (inactive) in assay [1]; 15.1 µM (inactive) in assay [2]; 16.2 µM (inactive) in [3]; 15.8 µM (inactive) in assay [4]; 3.61 µM (inactive) in [5]; 18.7 µM in assay [6]. Besides, the GI50 in assay [7] is 18.2 µM (inactive); in assay [8], 18.4 µM (inactive); in assay [9], 15 µM (inactive); in [10], 17.1 µM (inactive); in assay [11] it was 14.4 µM (inactive); in assay [12] it was 17.8 µM (inactive). The GI50 was 10.4 µM (inactive) in assay [13]; 15.2 µM (inactive) in [15]; 13.4 µM (inactive) in [16]; 23.9 µM (inactive) in [19]; 14.4 µM (inactive) in assay [17].
Take `CN(C)C(=S)/N=c1\ss/c(=N\C(=S)N(C)C)n1-c1ccc(Cl)cc1`: the GI50 is > 100 µM (inactive) in assay [1]; > 100 µM (inactive) in [2]; > 100 µM (inactive) in assay [3]; over 100 µM in assay [6]; > 100 µM (inactive) in [7]; > 100 µM (inactive) in assay [10]. Further, the GI50 is > 100 µM (inactive) in assay [11]; > 100 µM (inactive) in [12]; > 100 µM (inactive) in [13]; > 100 µM (inactive) in assay [14]; 3.33 µM (inactive) in [16]; > 100 µM (inactive) in assay [17].
As for `COC(=O)[C@]1(C)CCC[C@@]2(C)C1CC[C@]13C=C(C(C)C)[C@H](CC21)CC3(Cl)C#N` (stereo partly drawn), the GI50 in [1] is > 100 µM (inactive); in assay [2], 43.9 µM (inactive); in assay [3], 41.6 µM (inactive); in [4], 43.5 µM (inactive); in assay [5] it was 29.8 µM (inactive); in assay [6] it was 44.7 µM. Besides, the GI50 in assay [7] was > 100 µM (inactive); in assay [8], 27.4 µM (inactive); in assay [9], 42.2 µM (inactive); in assay [10], 20 µM (inactive); in assay [11], 24.8 µM (inactive); in assay [12], 41.4 µM (inactive). Also, the GI50 in [13] is 36.1 µM (inactive); in [15] it was 37.8 µM (inactive); in [16], 4.24 µM (inactive); in assay [19], 14.1 µM (inactive); in assay [17], 64.3 µM (inactive).
As for `CC(C)(C)C1CCC2c3c([nH]c4ccccc34)C3C(=O)N(c4ccc(C(=O)O)cc4)C(=O)C3C2C1` (stereo not drawn), the GI50 in assay [1] was 15.7 µM (inactive); in assay [2], 11.7 µM (inactive); in [3], 19 µM (inactive); in assay [4], 17.5 µM (inactive); in [5] it was 15.6 µM (inactive); in assay [6], 12 µM. In addition, the GI50 in assay [7] was 18.5 µM (inactive); in assay [8], 11 µM (inactive); in assay [9], 15.5 µM (inactive); in [18] it was 11.9 µM (inactive); in assay [10] it was 0.1 µM (active); in [11], 10.9 µM (inactive). The GI50 is 10.1 µM (inactive) in assay [12]; 11.3 µM (inactive) in assay [13]; 14.9 µM (inactive) in assay [14]; 13.1 µM (inactive) in [15]; 16.8 µM (inactive) in [17].
For the compound `CNc1nc(N)c(N=O)c(Nc2ccc(Br)cc2)n1`, the GI50 is > 100 µM (inactive) in assay [1]; 53.2 µM (inactive) in assay [2]; > 100 µM (inactive) in [3]; > 100 µM (inactive) in [4]; > 100 µM (inactive) in [5]; over 100 µM in [6]. Besides, the GI50 in assay [7] is > 100 µM (inactive); in assay [8] it was > 100 µM (inactive); in assay [9] it was > 100 µM (inactive); in assay [18], > 100 µM (inactive); in [10] it was 68.4 µM (inactive); in assay [11], > 100 µM (inactive). The GI50 is > 100 µM (inactive) in assay [12]; > 100 µM (inactive) in [13]; > 100 µM (inactive) in assay [14]; > 100 µM (inactive) in assay [15]; 68.5 µM (inactive) in [16]; 9.57 µM (inactive) in [17].
On to `NNC(=S)N/N=C(\c1nc2ccc(Cl)cc2nc1O)C(O)c1cccc([N+](=O)[O-])c1` (stereo not drawn), for which the GI50 in assay [1] was > 43 µM (inactive); in assay [2], > 100 µM (inactive); in [3] it was > 42.7 µM (inactive); in assay [5], > 100 µM (inactive); in [6], over 42.1 µM; in [7] it was > 100 µM (inactive). Moreover, the GI50 in [10] was > 100 µM (inactive); in assay [11], > 94.4 µM (inactive); in assay [12], > 63.7 µM (inactive); in assay [13], > 49 µM (inactive); in [14], > 100 µM (inactive); in assay [15] it was > 100 µM (inactive). Also, the GI50 in [16] and in assay [17] was > 100 µM (inactive) in each case.
On to `COc1ccc(NC(C)=O)cc1C1CCC(=O)N1` (stereo not drawn), for which the GI50 in assay [1] is > 100 µM (inactive); in assay [2], > 100 µM (inactive); in assay [3] it was > 100 µM (inactive); in assay [4], > 100 µM (inactive); in [5], > 100 µM (inactive); in [6], over 100 µM. Moreover, the GI50 in assay [7], in assay [8], in assay [9], in assay [10], in [12] and in assay [13] was > 100 µM (inactive) in each case. Also, the GI50 in assay [14], in [15], in assay [16], in assay [19] and in assay [17] was > 100 µM (inactive) throughout.
As for `C=CN(C=C)C(=O)Cn1cc(-c2ccccc2)nn1`, the GI50 in assay [1] was > 100 µM (inactive); in assay [2], > 100 µM (inactive); in assay [3], > 100 µM (inactive); in [4] it was > 100 µM (inactive); in [5], > 100 µM (inactive); in [6], over 100 µM. The GI50 in assay [7], in assay [8], in [9], in [10], in [12] and in assay [13] was > 100 µM (inactive) each time. Further, the GI50 in assay [14], in assay [15] and in assay [16] was > 100 µM (inactive) each time.

The record behind these values is ChEMBL document CHEMBL1201862, “PubChem BioAssay data set” (2004).
